# Measured values as given in ChEMBL document CHEMBL1201862, “PubChem BioAssay data set” (2004).
# Activity calls are given as the source filed them.
# Key:
# HEK293 = assay: optical interference in Abeta FP readout, dose response, artefact control for IDE activator project, biochemical, fluorescence polarization (AID 588442); type: functional, cell-based; conditions: Homo sapiens
# ORF 73 = ORF 73 (Human herpesvirus 8, UniProt O40947); assay: inhibitors of C-LANA binding to LBS DNA, dose response, biochemical, fluorescence polarization, cherry-picked samples (AID 504725); set-up: species or system Human gammaherpesvirus 8;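 also: fluorescence polarization of a labeled DNA duplex reporting LANA DNA binding; potency is for inhibitors that block LANA binding to the DNA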
# Chain of ORF 73 (O40947 whole entry): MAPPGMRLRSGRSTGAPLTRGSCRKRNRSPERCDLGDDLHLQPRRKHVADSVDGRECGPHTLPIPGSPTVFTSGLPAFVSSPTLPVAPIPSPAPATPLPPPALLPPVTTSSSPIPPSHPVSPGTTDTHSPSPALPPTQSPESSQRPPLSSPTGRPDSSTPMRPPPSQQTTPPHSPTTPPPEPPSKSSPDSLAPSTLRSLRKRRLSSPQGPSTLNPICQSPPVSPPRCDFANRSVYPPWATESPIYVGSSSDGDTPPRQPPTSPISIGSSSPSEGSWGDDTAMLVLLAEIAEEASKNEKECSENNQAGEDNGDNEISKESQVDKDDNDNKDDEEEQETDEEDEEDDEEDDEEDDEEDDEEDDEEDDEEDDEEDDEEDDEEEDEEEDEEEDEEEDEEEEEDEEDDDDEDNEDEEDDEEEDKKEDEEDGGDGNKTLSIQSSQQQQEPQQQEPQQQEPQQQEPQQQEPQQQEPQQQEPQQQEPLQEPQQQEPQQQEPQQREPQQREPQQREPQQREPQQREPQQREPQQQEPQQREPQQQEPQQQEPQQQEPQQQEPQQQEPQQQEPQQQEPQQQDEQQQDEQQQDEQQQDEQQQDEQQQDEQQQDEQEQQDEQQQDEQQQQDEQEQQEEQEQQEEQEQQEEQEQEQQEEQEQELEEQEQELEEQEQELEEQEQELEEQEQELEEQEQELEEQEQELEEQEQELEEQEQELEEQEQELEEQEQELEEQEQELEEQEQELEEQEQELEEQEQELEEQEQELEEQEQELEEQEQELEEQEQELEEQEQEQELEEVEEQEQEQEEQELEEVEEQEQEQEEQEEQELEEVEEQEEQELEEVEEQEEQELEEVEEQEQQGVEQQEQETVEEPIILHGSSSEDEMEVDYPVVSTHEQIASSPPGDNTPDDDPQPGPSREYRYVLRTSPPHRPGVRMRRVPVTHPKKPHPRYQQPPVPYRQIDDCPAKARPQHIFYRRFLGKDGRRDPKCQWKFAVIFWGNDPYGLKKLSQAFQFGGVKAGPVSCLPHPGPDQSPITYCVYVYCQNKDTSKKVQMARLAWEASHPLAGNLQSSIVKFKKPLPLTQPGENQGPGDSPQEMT
# [1] = target: T1, Apoptotic protease-activating factor 1 (Homo sapiens, UniProt O14727); type: functional
# T1 sequence (O14727 whole entry): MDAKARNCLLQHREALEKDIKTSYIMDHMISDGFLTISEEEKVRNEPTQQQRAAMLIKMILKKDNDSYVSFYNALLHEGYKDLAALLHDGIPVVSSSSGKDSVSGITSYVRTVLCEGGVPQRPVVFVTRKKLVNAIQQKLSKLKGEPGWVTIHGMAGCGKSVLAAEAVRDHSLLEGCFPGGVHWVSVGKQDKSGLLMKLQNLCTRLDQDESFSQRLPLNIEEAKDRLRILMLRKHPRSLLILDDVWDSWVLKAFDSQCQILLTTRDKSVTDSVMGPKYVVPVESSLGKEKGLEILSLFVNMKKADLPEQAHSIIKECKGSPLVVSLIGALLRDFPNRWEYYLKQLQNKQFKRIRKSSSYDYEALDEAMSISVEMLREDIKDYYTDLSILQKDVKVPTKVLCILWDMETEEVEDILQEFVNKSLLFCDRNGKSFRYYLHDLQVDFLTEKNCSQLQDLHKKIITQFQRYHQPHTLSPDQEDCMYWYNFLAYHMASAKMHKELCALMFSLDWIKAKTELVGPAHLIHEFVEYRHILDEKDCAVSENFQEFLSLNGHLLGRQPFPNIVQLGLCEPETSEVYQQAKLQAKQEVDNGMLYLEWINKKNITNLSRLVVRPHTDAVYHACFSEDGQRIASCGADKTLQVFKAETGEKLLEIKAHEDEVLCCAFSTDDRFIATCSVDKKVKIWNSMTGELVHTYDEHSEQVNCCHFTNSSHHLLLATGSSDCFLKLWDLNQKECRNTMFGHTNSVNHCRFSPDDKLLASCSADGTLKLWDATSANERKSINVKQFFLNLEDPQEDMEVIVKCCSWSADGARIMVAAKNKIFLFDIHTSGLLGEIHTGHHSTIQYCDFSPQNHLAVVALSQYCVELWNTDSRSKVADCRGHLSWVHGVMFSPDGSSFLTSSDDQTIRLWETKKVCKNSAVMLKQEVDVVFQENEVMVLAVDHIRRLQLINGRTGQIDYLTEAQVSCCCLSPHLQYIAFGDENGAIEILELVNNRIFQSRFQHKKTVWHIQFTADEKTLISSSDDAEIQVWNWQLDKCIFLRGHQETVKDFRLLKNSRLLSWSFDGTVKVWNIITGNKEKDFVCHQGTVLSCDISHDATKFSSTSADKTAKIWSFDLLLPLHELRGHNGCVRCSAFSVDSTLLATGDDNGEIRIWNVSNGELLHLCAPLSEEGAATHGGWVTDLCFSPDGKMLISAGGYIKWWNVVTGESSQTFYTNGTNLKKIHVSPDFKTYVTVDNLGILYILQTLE
smiles,measurement,setting,value
COc1ccc2noc3c2c1C(=O)c1ccccc1-3,EC50,HEK293,> 54.7 µM (inactive)
same,AC50,ORF 73,228 nM (active)
same,IC50,[1],42.5 µM (active)
